Assay [1] concerns the target Ferroportin (Homo sapiens, UniProt Q9NP59). The assay is described as follows: Inhibition of human hepcidin-stimulated recombinant C-terminal Halo-tagged human FPN internalization in MDCK cells incubated for 15 to 20 mins by Halo-tagged TMR based fluorescence assay. Format: cell-based.
The target in assay [2] is T1, Hepcidin (Homo sapiens) (UniProt P81172).
T1 sequence (whole entry): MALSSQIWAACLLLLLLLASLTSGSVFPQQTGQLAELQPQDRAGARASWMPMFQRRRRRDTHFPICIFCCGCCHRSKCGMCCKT
The assay is described as follows: Inhibition of human hepcidin-stimulated recombinant C-terminal Halo-tagged human FPN internalization in MDCK cells at 10 uM incubated for 15 to 20 mins by Halo-tagged TMR based fluorescence assay relative to control. The assay is classed as cell-based.

pIC50: −log10 of the molar value.

Ferroportin, sequence (Q9NP59 whole entry, looked up): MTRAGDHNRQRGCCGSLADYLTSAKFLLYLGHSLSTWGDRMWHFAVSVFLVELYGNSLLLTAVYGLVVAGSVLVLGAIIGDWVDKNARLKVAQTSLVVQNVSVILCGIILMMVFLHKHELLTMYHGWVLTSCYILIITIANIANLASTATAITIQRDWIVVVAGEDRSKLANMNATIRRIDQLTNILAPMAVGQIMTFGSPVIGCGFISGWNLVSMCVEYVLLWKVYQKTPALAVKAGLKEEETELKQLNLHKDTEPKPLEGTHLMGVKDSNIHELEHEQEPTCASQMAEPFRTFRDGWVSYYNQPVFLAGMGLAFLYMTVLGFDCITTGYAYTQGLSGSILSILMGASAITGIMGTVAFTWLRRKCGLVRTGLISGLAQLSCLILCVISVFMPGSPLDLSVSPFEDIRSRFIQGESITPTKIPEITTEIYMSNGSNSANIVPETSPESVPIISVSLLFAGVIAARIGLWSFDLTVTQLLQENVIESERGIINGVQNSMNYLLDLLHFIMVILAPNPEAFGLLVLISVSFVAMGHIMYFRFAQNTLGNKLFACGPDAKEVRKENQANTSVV

Consider `Fc1ccc(C(CN2CCN(c3cnccn3)CC2)NCc2cccs2)cc1` (configuration not stated), for which, in assay [1], the pIC50 is below 4.30.
For the compound `COCCN1CCN(C(CN2CCC(N3CCCCC3)CC2)c2ccc(C#N)cc2)CC1` (configuration not stated), the negative logarithm of the IC50 (pIC50) in assay [1] was above 4.30.
Same read-out and setting: as for `O=S(=O)(c1ccccc1)N1CCN(CC(NCc2ccccn2)c2ccc(F)cc2)CC1` (configuration not stated), the figure is below 4.00; as for `CCCCN1CCN(C(CN2CCC(N3CCCCC3)CC2)c2ccccc2)CC1` (configuration not stated), below 4.00.
As to `COc1ccc(CNC(CN2CCC(N3CCCCC3)CC2)c2ccccc2)cc1` (configuration not stated), the pIC50 in assay [1] is above 4.00. For the same compound, in assay [2], the inhibition is below 50%.
As for `O=C(C1CCCO1)N1CCN(C(CN2CCC(N3CCCCC3)CC2)c2ccccc2)CC1` (configuration not stated), in assay [1], the pIC50 is below 4.00.
As to `O=C(C1CCCO1)N1CCN(CC(NCc2ccccc2)c2ccccc2)CC1` (configuration not stated), in assay [1], the pIC50 is below 4.00.
Same read-out and setting: as for `CNC(=O)C1CCN(CC(c2ccccc2)N2CCN(CCOC)CC2)CC1` (configuration not stated), the figure is above 4.00.
The same measure, in the same setting: the figure for `COCCN1CCN(C(CN2CCC(N3CCCCC3)CC2)c2ccc(Cl)cc2)CC1` (configuration not stated) is below 4.00.
On to `O=C(C1CCCO1)N1CCN(CC(NCc2ccccn2)c2ccc(F)cc2)CC1` (configuration not stated), for which the inhibition in assay [2] is below 50%.
Take `c1ccc(C(CN2CCC(N3CCCCC3)CC2)N2CCN(C3CCCC3)CC2)cc1` (configuration not stated): the pIC50 in assay [1] was below 4.00.
The same measure, in the same setting: as for `O=C(c1ccccn1)N1CCN(CC(NCc2ccccn2)c2ccc(F)cc2)CC1` (configuration not stated), the figure is below 4.00; as for `COCCC1CCN(C(CN2CCC(N3CCCCC3)CC2)c2ccccc2)CC1` (configuration not stated), below 4.00.
Same read-out and setting: the figure for `COCCN1CCN(C(CN2CCN(c3ccccc3)CC2)c2ccccc2)CC1` (configuration not stated) is below 4.00.
Regarding `c1ccc(C(CN2CCC(N3CCCCC3)CC2)NCCN2CCOCC2)cc1` (configuration not stated), in assay [1], the pIC50 was above 4.00. In assay [2], the inhibition is below 50%.
As for `Fc1ccc(C(CN2CCN(c3ccccc3)CC2)NCc2ccccn2)cc1` (configuration not stated), the negative logarithm of the IC50 (pIC50) in assay [1] is below 4.00.
As for `O=C(C1CCCO1)N1CCN(CC(NCc2ccccn2)c2ccccc2)CC1` (configuration not stated), in assay [2], the inhibition is below 50%.
In the case of `COCCN1CCN(C(CN2CCC(C3CCCCC3)CC2)c2ccccc2)CC1` (configuration not stated), the pIC50 in assay [1] is below 4.00.
As to `CCOCCN1CCN(C(CN2CCC(N3CCCCC3)CC2)c2ccccc2)CC1` (configuration not stated), the pIC50 in assay [1] was above 4.30.
On the same count and under the same terms, the figure for `CCN(CC)CCN1CCN(C(CN2CCC(N3CCCCC3)CC2)c2ccccc2)CC1` (configuration not stated) is below 4.00; for `c1ccc(C(CN2CCC(N3CCCCC3)CC2)N2CCN(c3ccccn3)CC2)cc1` (configuration not stated) it is below 4.00; for `NC(CN1CCN(C(=O)C2CCCO2)CC1)c1ccc(F)cc1` (configuration not stated) it is below 4.00.
Same read-out and setting: the figure for `COCCN1CCN(C(CN2CCC(N3CCCCC3)CC2)c2cccc(OC)c2)CC1` (configuration not stated) is above 4.00.
On to `COCCN1CCN(C(CN2CCC(N3CCCCC3)CC2)c2ccccc2)CC1` (configuration not stated), for which, in assay [1], the pIC50 was above 4.30. For the same compound, the inhibition in assay [2] is above 50%.
For `COCCN1CCN(C(CN2CCC(NC(=O)c3ccccc3)CC2)c2ccccc2)CC1` (configuration not stated), in assay [1], the pIC50 was below 4.00.
On the same count and under the same terms, as for `COCCN1CCN(C(CN2CCC(N3CCOCC3)CC2)c2ccccc2)CC1` (configuration not stated), the figure is above 4.30.
On to `Fc1ccc(C(CN2CCN(c3cnccn3)CC2)NCc2ccccn2)cc1` (configuration not stated), for which the pIC50 in assay [1] was above 4.30. In assay [2], the inhibition is above 50%.
For `COCCN1CCN(C(CN2CCC(NC3CCCC3)CC2)c2ccccc2)CC1` (configuration not stated), in assay [1], the negative logarithm of the IC50 (pIC50) was above 4.30.
Same read-out and setting: as for `O=C(C1CCCO1)N1CCN(CC(NCc2ccccc2)c2ccc(F)cc2)CC1` (configuration not stated), the figure is below 4.00.
Still for that read-out and setting: as for `c1ccc(C(CN2CCN(c3cnccn3)CC2)NCc2ccccn2)cc1` (configuration not stated), the figure is below 4.00; as for `COCCN1CCN(C(CN2CCC(N3CCCCC3)CC2)c2ccc(C(F)(F)F)cc2)CC1` (configuration not stated), above 4.30; as for `c1ccc(C(CN2CCC(N3CCCCC3)CC2)N2CCN(CC3CCCO3)CC2)cc1` (configuration not stated), above 4.30.
On the same count and under the same terms, as for `COCCN1CCN(C(CN2CCC(NC(=O)C3CCCCC3)CC2)c2ccccc2)CC1` (configuration not stated), the figure is above 4.30; as for `COCCNC(CN1CCN(C(=O)C2CCCO2)CC1)c1ccc(F)cc1` (configuration not stated), below 4.00.
For `c1ccc(C(CN2CCCCC2)NCCN2CCOCC2)cc1` (configuration not stated), the pIC50 in assay [1] was above 4.00.
Regarding `COCCN1CCN(C(CN2CCC(N3CCCC3)CC2)c2ccccc2)CC1` (configuration not stated), the pIC50 in assay [1] is above 4.30.
Still for that read-out and setting: the figure for `CC(=O)N1CCN(CC(NCc2ccccn2)c2ccc(F)cc2)CC1` (configuration not stated) is below 4.00; for `COCCN1CCN(C(CN2CCC(N3CCCCC3)CC2)c2ccc(F)cc2)CC1` (configuration not stated) it is above 4.30; for `c1ccc(C(CN2CCC(N3CCCCC3)CC2)N2CCN(CCn3ccnc3)CC2)cc1` (configuration not stated) it is below 4.00.
The same measure, in the same setting: the figure for `COCCN1CCN(C(CN2CCC(NC(=O)C(C)C)CC2)c2ccccc2)CC1` (configuration not stated) is above 4.00.
The same measure, in the same setting: the figure for `COCCN1CCN(C(CN2CCOCC2)c2ccccc2)CC1` (configuration not stated) is below 4.00; for `O=C(C1CCCO1)N1CCN(CC(NCc2cccs2)c2ccc(F)cc2)CC1` (configuration not stated) it is below 4.00; for `COCCN1CCN(C(CN2CCC(N3CCCCC3)CC2)c2ccc(C)cc2)CC1` (configuration not stated) it is above 4.30.
Consider `COCCN1CCN(C(CN2CCC(N3CCCCC3)CC2)c2cccc(Cl)c2)CC1` (configuration not stated), for which, in assay [1], the pIC50 was below 4.00.
Same read-out and setting: as for `COCCN1CCN(C(CN2CCC(N3CCCCC3)CC2)c2ccc(OC(C)C)cc2)CC1` (configuration not stated), the figure is below 4.00.
The same measure, in the same setting: as for `c1ccc(CNC(CN2CCN(c3cnccn3)CC2)c2ccncc2)nc1` (configuration not stated), the figure is below 4.00; as for `COCCN1CCN(C(CN2CCC(N3CCCCC3)CC2)c2ccccc2Cl)CC1` (configuration not stated), below 4.00.
Same read-out and setting: the figure for `COc1ccc(CNC(CN2CCCCC2)c2ccccc2)cc1` (configuration not stated) is below 4.00.
Turning to `COCCN1CCN(C(CN2CCC(C(=O)NC3CCCCC3)CC2)c2ccccc2)CC1` (configuration not stated), the negative logarithm of the IC50 (pIC50) in assay [1] is below 4.00.
As to `COCCCN1CCN(C(CN2CCC(N3CCCCC3)CC2)c2ccccc2)CC1` (configuration not stated), in assay [1], the pIC50 is above 4.30.
On the same count and under the same terms, as for `NC(CN1CCN(c2cnccn2)CC1)c1ccc(F)cc1` (configuration not stated), the figure is below 4.00; as for `Fc1ccccc1C(CN1CCN(c2cnccn2)CC1)NCc1ccccn1` (configuration not stated), below 4.00.
For `COCCN1CCN(C(CN2CCC(N3CCC(C)CC3)CC2)c2ccccc2)CC1` (configuration not stated), in assay [1], the pIC50 is above 4.00.
Consider `COCCN1CCN(C(CN2CCC(NC(C)=O)CC2)c2ccccc2)CC1` (configuration not stated), for which, in assay [1], the negative-log IC50 (pIC50) is above 4.00.
Turning to `CN(CCN(C)c1cnccn1)CC(NCc1ccccn1)c1ccc(F)cc1` (configuration not stated), the pIC50 in assay [1] was above 4.30.
Same read-out and setting: the figure for `CCOC(=O)C1CCN(CC(c2ccccc2)N2CCN(CCOC)CC2)CC1` (configuration not stated) is below 4.00; for `Fc1ccc(C(CN2CCN(c3cnccn3)CC2)NCc2ccccc2)cc1` (configuration not stated) it is below 4.30.
The same measure, in the same setting: as for `c1ccc(C(CN2CCC(N3CCCCC3)CC2)N2CCN(c3cnccn3)CC2)cc1` (configuration not stated), the figure is below 4.00.
In the case of `COCCN1CCCN(C(CN2CCC(N3CCCCC3)CC2)c2ccccc2)CC1` (configuration not stated), the negative logarithm of the IC50 (pIC50) in assay [1] was above 4.30.
Same read-out and setting: the figure for `Fc1ccc(C(CN2CCN(c3ccccn3)CC2)NCc2ccccn2)cc1` (configuration not stated) is below 4.00; for `COCCN1CCN(C(CN2CCC(Nc3ccccc3)CC2)c2ccccc2)CC1` (configuration not stated) it is below 4.00.
The same measure, in the same setting: as for `COCCN1CCN(C(CN2CCCCC2)c2ccccc2)CC1` (configuration not stated), the figure is above 4.00; as for `COCCN1CCN(C(CN2CCC(C(=O)Nc3ccccc3)CC2)c2ccccc2)CC1` (configuration not stated), above 4.00; as for `CCN(CC)C1CCN(CC(c2ccccc2)N2CCN(CCOC)CC2)CC1` (configuration not stated), above 4.30.
The same measure, in the same setting: the figure for `COCCNC(CN1CCN(c2cnccn2)CC1)c1ccc(F)cc1` (configuration not stated) is below 4.00; for `Clc1ccc(C(CN2CCN(c3cnccn3)CC2)NCc2ccccn2)cc1` (configuration not stated) it is below 4.00.
For `COc1ccccc1C(=O)N1CCN(CC(NCc2ccccn2)c2ccc(F)cc2)CC1` (configuration not stated), the pIC50 in assay [1] was above 4.30.
In the case of `COCCN1CCN(C(CN2CCC(N3CCN(C)CC3)CC2)c2ccccc2)CC1` (configuration not stated), in assay [1], the pIC50 was below 4.00.
The same measure, in the same setting: the figure for `CCOc1ccc(C(CN2CCC(N3CCCCC3)CC2)N2CCN(CCOC)CC2)cc1` (configuration not stated) is below 4.00; for `COCCN1CCN(C(CN2CCC(N3CCCCC3)CC2)c2ccc(OC)cc2)CC1` (configuration not stated) it is above 4.30; for `COCCN1CCN(C(CN2CCC(N(C)C)CC2)c2ccccc2)CC1` (configuration not stated) it is above 4.30.
On to `CC(C)N1CCN(C(CN2CCC(N3CCCCC3)CC2)c2ccccc2)CC1` (configuration not stated), for which the pIC50 in assay [1] is below 4.00.
Still for that read-out and setting: as for `Fc1cccc(C(CN2CCN(c3cnccn3)CC2)NCc2ccccn2)c1` (configuration not stated), the figure is below 4.00.
